The record followed here is patent publication US20250134891A1, “USE OF SOS1 INHIBITORS WITH MTOR INHIBITORS TO TREAT CANCERS” (Revolution Medicines, Inc., priority 2021, published 2025).

Assay [1] has as its system LN229 human glioblastoma PTPN11^A72S/WT. Kind of assay: Tumor growth in vivo, LN229 PTPN11^A72S/WT glioblastoma CDX model. As to conditions: single agent; 3 mg/kg IP weekly; athymic nude mice. On the procedure:
The combinatorial effects of Compound SOS1-(C) with RM-006 (also known as RMC-6272) on tumor cell growth in a human model of PTPN11-mutant glioblastoma, LN229 PTPN11^A72S/WT. 6-7 week athymic nude mice were implanted with LN229 in 50% matrigel (10×10^6 cells/mouse) subcutaneously in the flank. Once tumors reached an average size of 200 mm^3, mice were randomized into treatment groups (n=10/group) to start the administration of test articles or control. SOS1-(C) treatment was administered daily by oral gavage and RM-006 was administered weekly by intra-peritoneal injection. Body weight and tumor volume (using calipers) was measured twice weekly until study endpoint.

For assay [2], the system named is murine pancreatic ductal adenocarcinoma PAN02 PTPN11^G503V. The experiment in a line: Tumor growth in vivo, PAN02 PTPN11^G503V syngeneic model. As to conditions: single agent. Set-up: species or system mouse. On the procedure:
The combinatorial effects of Compound SOS1-(C) with RM-006 (also known as RMC-6272) on tumor cell growth in vivo were evaluated in the murine pancreatic ductal adenocarcinoma PAN02 PTPN11^G503V syngeneic model using female C57BL/6J mice (6-7 weeks old). Mice were implanted with PAN02 tumor cells in PBS (5×10^6 cells/mouse) subcutaneously in the flank. Once tumors reached an average size of ˜145 mm^3, mice were randomized to treatment groups to start the administration of test articles or control. SOS1-(C) treatment was administered daily by oral gavage and RM-006 was administered weekly by intra-peritoneal injection. Body weight and tumor volumes (using calipers) were measured twice weekly until study endpoint. Regressions (R) are defined as decrease of 10% or more from initial tumor volume.

As for `CO[C@H]1C[C@@H]2CC[C@@H](C)[C@@](O)(O2)C(=O)C(=O)N2CCCC[C@H]2C(=O)O[C@H]([C@H](C)C[C@@H]2CC[C@@H](OC(=O)NCCOCCOCCOCCOCCOCCOCCOCCOCCC(=O)NCCS(=O)(=O)c3ccc(C(=O)N4CCOc5ccc(-c6ccc(N)nc6)cc5C4)c(C)c3F)[C@H](OC)C2)C[C@@H](O)[C@H](C)/C=C(\C)[C@@H](O)[C@@H](OC)C(=O)[C@H](C)C[C@H](C)/C=C/C=CC=C1C` [RM-006], the “tumor growth inhibition (TGI)” value came to 72% in assay [1] and 11% in assay [2] (3 mg/kg IP weekly, female C57BL/6J mice). The “regressions (decrease of 10% or more from initial tumor volume)” value in assay [2] (any timepoint in this study) is “did not induce regressions”.
